Assay results as given in patent EP3146981A1, “COVALENTLY ATTACHED AZOBENZENE SWITCHES AND THEIR USES FOR THE OPTICAL CONTROL OF TARGET PROTEINS” (Ludwig-Maximilians-Universität München, priority 2015, dated 2017).
Like-named read-outs stand apart in the source and are kept apart here.

What was measured:
[1] = Stability of the labeling solution in aqueous buffer (readout: photoactivation of SNAG-mGluR2); format: physicochemical; conditions: one week following dilution in aqueous buffer at room temperature
[2] = system: SNAP-mGluR2 in hippocampal neurons; assay: Whole cell patch-clamp of hippocampal neurons, excitability; format: cell-based, mice
Method: Dissociated hippocampal neuron cultures were prepared from postnatal P0 or P1 mice on 12 mm glass coverslips as previously described (Levitz et al., 2013). Neurons were transfected with SNAP-mGluR2 (1.5 µg/well) and tdTomato (0.25 µg/well as a transfection marker) using the calcium phosphate method at DIV9. Whole cell patch clamp experiments were performed 3-6 days after transfection (DIV 12-15). Labeling was performed using the same protocol as HEK cells except BGAG was diluted in extracellular recording solution containing (in mM): 138 NaCl, 1.5 KCl, 1.2 MgCl2, 2.5 CaCl2, 10 glucose, 5 HEPES, pH 7.4. Glass pipettes of resistance 4-8 MΩ were filled with an intracellular solution containing (in mM): 140 K-gluconate, 10 NaCl, 5 EGTA, 2 MgCl2, 1 CaCl2, 10 HEPES, 2 MgATP and 0.3 Na2GTP, pH 7.2. Autaptic neurons were voltage clamped at -60 mV and a 2-3 ms voltage step to +20 mV was used to evoke a spike followed (~3-5 ms later) by an EPSC. Stimulation was performed once every 12 s to prevent rundown.
We first expressed SNAP-mGluR2-GFP in dissociated hippocampal neurons and labeled with BG-Alexa-647 to determine if SNAP-BG conjugation could occur efficiently in neuronal cultures, which are considerably denser than HEK 293T cell cultures. […]

SNAP-tag = assay: In vitro SNAP-tag labeling, SDS page
Method: Scale bars represents 50 µM (top) and 10 µM (bottom). • Figure 9: SDS page after in vitro SNAP-tag labeling (New England Biolabs, #P9312S) with BGAG12 and D-MAG. Reductive (dithiothreitol, DTT), oxidative (oxidized glutathione, GSSG) or neutral conditions (no additive) were employed according to the manufacturer's instructions.

wild type mGluR2 = wild type mGluR2 (Rattus norvegicus, UniProt P31421); conditions: cells expressing wild type mGluR2 (no SNAP tag) incubated with BGAG12
Chain of wild type mGluR2 (P31421 19-872): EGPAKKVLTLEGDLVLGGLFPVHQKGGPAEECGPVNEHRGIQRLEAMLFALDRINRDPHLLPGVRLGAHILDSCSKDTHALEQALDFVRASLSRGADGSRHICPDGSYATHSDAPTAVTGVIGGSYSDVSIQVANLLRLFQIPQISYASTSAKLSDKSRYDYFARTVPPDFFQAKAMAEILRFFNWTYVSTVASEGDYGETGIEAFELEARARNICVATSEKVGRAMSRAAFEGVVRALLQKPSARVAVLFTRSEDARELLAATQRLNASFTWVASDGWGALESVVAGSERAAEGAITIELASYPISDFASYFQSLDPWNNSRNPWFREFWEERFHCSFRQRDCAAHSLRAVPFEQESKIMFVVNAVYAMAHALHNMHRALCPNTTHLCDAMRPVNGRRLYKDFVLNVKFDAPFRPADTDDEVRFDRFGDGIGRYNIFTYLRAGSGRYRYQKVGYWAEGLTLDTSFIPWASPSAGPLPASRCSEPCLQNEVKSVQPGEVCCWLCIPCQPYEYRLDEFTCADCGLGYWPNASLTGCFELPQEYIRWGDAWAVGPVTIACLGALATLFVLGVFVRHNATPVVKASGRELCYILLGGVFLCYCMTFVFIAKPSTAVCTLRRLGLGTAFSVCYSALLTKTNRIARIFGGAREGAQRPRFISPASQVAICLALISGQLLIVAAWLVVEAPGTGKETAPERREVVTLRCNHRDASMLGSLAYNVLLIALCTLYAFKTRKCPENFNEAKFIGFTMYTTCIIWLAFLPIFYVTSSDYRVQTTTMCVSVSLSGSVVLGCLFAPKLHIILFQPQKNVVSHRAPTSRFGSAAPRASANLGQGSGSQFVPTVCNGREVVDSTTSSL

[3] = reductive (DTT), oxidative (GSSG) or neutral conditions

Molecule: Nc1nc(OCc2ccc(CNC(=O)CCC(=O)N3Cc4ccccc4-c4c(nnn4CCOCCOCCOCCOCCOCCOCCOCCOCCOCCOCCOCCOCCC(=O)NCCNc4ccc(/N=N/c5ccc(NC(=O)CCC[C@@H](C[C@H](N)C(=O)O)C(=O)O)cc5)cc4)-c4ccccc43)cc2)c2nc[nH]c2n1 [BGAG12(460), (2S,4S)-2-amino-4-(4-((4-((E)-(4-((1-(8-(4-((4-(((2-amino-9H-purin-6-yl)oxy)methyl)-benzyl)amino)-4-oxobutanoyl)-8,9-dihydro-1H-dibenzo[b,f][1,2,3]triazolo[4,5-d]azo-cin-1-yl)-39-oxo-3,6,9,12,15,18,21,24,27,30,33,36-dodecaoxa-40-azadotetra-contan-42-yl)amino)phenyl)diazenyl)phenyl)amino)-4-oxobutyl)pentanedioic acid]
- Relaxation following illumination (SNAP-mGluR2; in the dark after blue light): rapidly in the dark
- photoactivation relative to saturating glutamate (SNAP-mGluR2; labeling with 10 µM, blue light (420-470 nm bandpass), n=18 cells): 34.9 ± 4.2%

Molecule: COCCOCCOCCOCCOCCOCCOCCOCCOCCOCCOCCOCCC(=O)NCC(=O)Nc1ccc(/N=N/c2ccc(NC(=O)CCC[C@@H](C[C@H](N)C(=O)O)C(=O)O)cc2)cc1 [AG12, (2S,4S)-2-Amino-4-(4-oxo-4-((4-((E)-(4-(38-oxo-2,5,8,11,14,17,20,23,26,29,32,35-dodecaoxa-39-azahentetracontan-41-amido)phenyl)diazenyl)phenyl)amino)butyl)-pentanedioic acid]
- photoagonism of SNAP-mGluR2, directionality (SNAP-mGluR2; PCL version where the BG group was omitted): same directionality as BGAG12

Molecule: Nc1nc(OCc2ccc(CNC(=O)CCc3cn(CCOCCOCCOCCOCCOCCOCCOCCOCCOCCOCCOCCOCCC(=O)NCC(=O)Nc4ccc(/N=N/c5ccc(NC(=O)CCC[C@@H](C[C@H](N)C(=O)O)C(=O)O)cc5)cc4)nn3)cc2)c2nc[nH]c2n1 [BGAG12, (2S,4S)-2-Amino-4-(4-((4-((E)-(4-(1-(4-(3-((4-(((2-amino-9H-purin-6-yl)oxy)methyl)benzyl)amino)-3-oxopropyl)-1H-1,2,3-triazol-1-yl)-39-oxo-3,6,9,12,15,18,21,24,27,30,33,36-dodecaoxa-40-azadotetracontan-42-amido)phenyl)diazenyl)phenyl)amino)-4-oxobutyl)pentanedioic acid]
- efficacy of optical activation on reuse of the labeling solution [1]: without a decline in efficacy of optical activation
- membrane hyperpolarization ([2]; illumination at 380 nm, reversed at 500 nm): 2-8 mV
- effect of light-induced hyperpolarization on firing ([2]; neurons at depolarized potentials that induced firing): sufficient to inhibit the action potentials
- reaction with SNAP-tag (SNAP-tag; [3]): reacts with SNAP-tag under each condition
- light responses (wild type mGluR2): no light responses
- photocurrents (SNAP-mGluR2; 100 nM labeling for 45 minutes): photocurrents were still observed
- Light responses relative to the responses to saturating glutamate (SNAP-mGluR2; 10 µM for 45 minutes at 37 °C, washed, 380 nm, n=10 cells): 59.3 ± 2.8%
- concentration showing optimal labeling (SNAP-mGluR2; 45 minute incubation): ≥ 1 µM
- lowest concentration at which photocurrents were observed (SNAP-mGluR2; overnight labeling): 10 nM
- photocurrents (SNAP-mGluR2; overnight labeling at 100 nM, versus 45 minutes): increased

Molecule: D-Maleimide-Azobenzene Glutamate [D-MAG]
- reaction with SNAP-tag (SNAP-tag; [3]): reacts only under oxidative and neutral conditions
- reaction with SNAP-tag (SNAP-tag; reductive conditions (DTT)): unreactive towards the SNAP-tag under reductive conditions
